The text below walks through data of ChEMBL document CHEMBL2163273, “Orally active adenosine A(1) receptor agonists with antinociceptive effects in mice” (J Med Chem, 2012).

Structures are written as SMILES. Calls of active or inactive are those of the source. The calls are words filed in the database; no cut-off is given here.

Data set [1] deals with T1, Adenosine receptor A1 (Homo sapiens, UniProt P30542).
T1 sequence (P30542 whole entry): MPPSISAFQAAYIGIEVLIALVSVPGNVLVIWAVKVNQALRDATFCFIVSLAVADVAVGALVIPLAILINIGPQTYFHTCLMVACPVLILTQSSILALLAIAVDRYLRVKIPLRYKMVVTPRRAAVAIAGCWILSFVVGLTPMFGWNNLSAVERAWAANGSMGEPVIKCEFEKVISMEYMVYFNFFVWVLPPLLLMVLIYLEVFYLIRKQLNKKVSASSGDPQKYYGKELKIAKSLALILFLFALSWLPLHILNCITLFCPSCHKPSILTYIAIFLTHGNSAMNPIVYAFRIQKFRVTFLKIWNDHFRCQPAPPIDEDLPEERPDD
The data set is described as follows: Agonist activity at human A1AR expressed in HEK293T/17 cells assessed as inhibition of isoproterenol-induced cAMP accumulation incubated for 10 mins by luciferase reporter assay. Type of data set: functional, cell-based, HEK-293T.

The target of data set [2] is T1, Adenosine receptor A1. The data set is described as follows: Agonist activity at human A1AR expressed in HEK293T/17 cells assessed as inhibition of forskolin-induced cAMP accumulation incubated for 10 mins by luciferase reporter assay. Type of data set: functional, cell-based, HEK-293T.
The species entered for data set [3] is Homo sapiens. The data set is described as follows: Selectivity ratio of Ki for human A3AR to Ki for human A1AR.
Data set [4] deals with Mus musculus. The data set is described as follows: Antinociceptive effect in intrathecally dosed C57BL/6 mouse assessed as inhibition of noxious thermal sensitivity by measuring paw withdrawal latency. Type of data set: functional, organism-based.
The subject of data set [5] is Mus musculus. The data set is described as follows: Cardiovascular toxicity in C57BL/6 mouse assessed as change in body temperature at 5000 nmol/kg, po. It is filed as organism-based. Conditions: in vivo.
Data set [6] concerns Mus musculus. The data set is described as follows: Cardiovascular toxicity in C57BL/6 mouse assessed as change in heart rate at 5000 nmol/kg, po. Conditions: in vivo. Type of data set: organism-based.
The species entered for data set [7] is Homo sapiens. The data set is described as follows: Selectivity ratio of Ki for human A2AR to Ki for human A1AR.
The target in data set [8] is T1, Adenosine receptor A1. The data set is described as follows: Displacement of [3H]2-chloro-N6-cyclopentyladenosine from human A1AR.
Data set [9] deals with Mus musculus. The data set is described as follows: Cardiovascular toxicity in A1AR knock out C57BL/6 mouse assessed as change in heart rate at 5000 nmol/kg, po. Type of data set: organism-based. Conditions: in vivo.
Data set [10] relates to Mus musculus. The data set is described as follows: Antinociceptive effect in A1AR knock out C57BL/6 mouse assessed as inhibition of noxious thermal sensitivity by measuring paw withdrawal latency at 5 nmol/kg, it. Type of data set: functional, organism-based.
Data set [11] concerns the target T2, Adenosine receptor A2b (Homo sapiens) (UniProt P29275).
T2 sequence (whole entry): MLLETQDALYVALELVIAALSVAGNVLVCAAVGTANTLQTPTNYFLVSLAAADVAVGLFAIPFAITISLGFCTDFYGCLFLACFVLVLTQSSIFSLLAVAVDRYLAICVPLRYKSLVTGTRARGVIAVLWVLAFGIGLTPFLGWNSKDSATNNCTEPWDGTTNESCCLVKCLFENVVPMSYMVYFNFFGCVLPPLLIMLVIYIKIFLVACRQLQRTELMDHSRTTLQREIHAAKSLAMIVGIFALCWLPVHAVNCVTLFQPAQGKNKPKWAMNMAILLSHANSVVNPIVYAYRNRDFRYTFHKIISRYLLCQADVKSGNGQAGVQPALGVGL
The data set is described as follows: Displacement of [3H]2-chloro-N6-cyclopentyladenosine from human A2BR at 50 uM.

In the next data set the target is T3, Adenosine receptor A3 (Homo sapiens, UniProt P0DMS8).
T3 sequence (P0DMS8 whole entry): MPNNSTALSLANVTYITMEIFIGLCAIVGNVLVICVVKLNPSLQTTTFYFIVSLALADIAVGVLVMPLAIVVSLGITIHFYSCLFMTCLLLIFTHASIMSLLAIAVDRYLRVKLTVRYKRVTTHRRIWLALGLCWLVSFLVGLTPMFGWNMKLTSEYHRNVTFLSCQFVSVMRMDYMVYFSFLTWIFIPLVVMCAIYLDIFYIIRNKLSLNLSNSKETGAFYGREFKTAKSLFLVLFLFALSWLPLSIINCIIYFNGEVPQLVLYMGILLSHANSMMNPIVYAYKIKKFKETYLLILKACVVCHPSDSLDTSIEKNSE
The data set is described as follows: Displacement of [3H]2-chloro-N6-cyclopentyladenosine from human A3AR.

The target in another data set is Adenosine receptor A2a (Homo sapiens, UniProt P29274). The data set is described as follows: Displacement of [3H]2-chloro-N6-cyclopentyladenosine from human A2AR.
Data set [12] has as its target T1, Adenosine receptor A1. The data set is described as follows: Agonist activity at human A1AR assessed as induction of Ca2+ ion mobilization by orthogonal functional assay.
Data set [13] relates to Mus musculus. The data set is described as follows: Antinociceptive effect in intravenously dosed C57BL/6 mouse assessed as inhibition of noxious thermal sensitivity by measuring paw withdrawal latency. It is filed as functional, organism-based.
For data set [14], the system named is Mus musculus. The data set is described as follows: Cardiovascular toxicity in A1AR knock out C57BL/6 mouse assessed as change in body temperature at 5000 nmol/kg, po. Type of data set: organism-based. As to conditions: in vivo.
Data set [15] has as its system Mus musculus. The data set is described as follows: Antinociceptive effect in orally dosed C57BL/6 mouse assessed as inhibition of noxious thermal sensitivity by measuring paw withdrawal latency. It is filed as functional, organism-based.
For data set [16], the target named is T2, Adenosine receptor A2b (Homo sapiens). The data set is described as follows: Displacement of [3H]2-chloro-N6-cyclopentyladenosine from human A2BR at 10 uM.

Sequence of Adenosine receptor A2a (P29274 whole entry): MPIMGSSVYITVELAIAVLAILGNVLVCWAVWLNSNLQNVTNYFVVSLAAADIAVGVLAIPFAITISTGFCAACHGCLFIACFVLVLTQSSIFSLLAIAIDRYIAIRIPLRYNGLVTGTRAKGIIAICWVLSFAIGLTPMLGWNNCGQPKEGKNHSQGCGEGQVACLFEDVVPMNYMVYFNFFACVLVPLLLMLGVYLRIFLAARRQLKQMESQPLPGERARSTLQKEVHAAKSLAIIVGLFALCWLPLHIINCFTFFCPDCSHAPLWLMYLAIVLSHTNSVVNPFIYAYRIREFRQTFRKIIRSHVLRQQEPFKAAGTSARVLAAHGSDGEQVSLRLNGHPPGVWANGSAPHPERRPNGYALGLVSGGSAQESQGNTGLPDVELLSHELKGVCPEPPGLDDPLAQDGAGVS

Regarding `O=P(OCCc1ccccc1)(OCCc1ccccc1)OC[C@H]1O[C@@H](n2cnc3c(NC4CCCC4)nc(Cl)nc32)[C@H](O)[C@@H]1O`, the EC50 at Adenosine receptor A1 [1] was found to be 6100 nM.

Consider `Nc1ncnc2c1ncn2[C@@H]1O[C@H](COP(=O)(O)O)[C@@H](O)[C@H]1O` [ADENOSINE PHOSPHATE], for which the EC50 at Adenosine receptor A1 [1] turned out to be 500 nM.

In the case of `COP(=O)(OC)O[C@@H]1CCC[C@H]1Nc1nc(Cl)nc2c1ncn2[C@@H]1O[C@H](CO)[C@@H](O)[C@H]1O`, at Adenosine receptor A1 [2], the EC50 is over 10000 nM.

In the case of `O=P(O)(O)OCC(Cc1ccccc1)Nc1nc(Cl)nc2c1ncn2[C@@H]1O[C@H](CO)[C@@H](O)[C@H]1O` (mixture of isomers), the EC50 on Adenosine receptor A1 [1] came to 1500 nM.

For the molecule `Nc1ncnc2c1ncn2[C@@H]1O[C@H](CO)[C@@H](O)[C@H]1OP(=O)(O)O`, the EC50 on Adenosine receptor A1 [1] is 490 nM.

In the case of `O=P(O)(O)O[C@@H]1CCC[C@H]1Nc1nc(Cl)nc2c1ncn2[C@@H]1O[C@H](CO)[C@@H](O)[C@H]1O`, the EC50 at Adenosine receptor A1 [2] is 120 nM.

On to `COP(=O)(OC)OC[C@H]1O[C@@H](n2cnc3c(NC4CCCC4)nc(Cl)nc32)[C@H](O)[C@@H]1O`, for which the Ratio Ki in the data set filed under Homo sapiens [3] came to 12; in the data set filed under Homo sapiens [7], 130. Moreover, the Activity result in the data set with Mus musculus [4] was “Dose-dependent effect”; in the data set on Mus musculus [5] it was “Non-toxic”; with Mus musculus [6], “Non-toxic”; in the data set with Mus musculus [9] it was “Non-toxic”; in the data set with Mus musculus [13], “Dose-dependent effect”; in the data set with Mus musculus [14], “Non-toxic”. For the same molecule, the Activity result in the data set on Mus musculus [15] was “Dose-dependent effect”. Also, the Ki turned out to be 36 nM at Adenosine receptor A1 [8], 450 nM on Adenosine receptor A3 and 4700 nM on Adenosine receptor A2a. Further, the result in the data set on Mus musculus [10] was inactive. Further, the 50% effective concentration (EC50) on Adenosine receptor A1 [1] was found to be 1400 nM; on Adenosine receptor A1 [12], 520 nM. In addition, in data set [11], the inhibition worked out at 7%.

With `O=P(O)(O)OC[C@H]1O[C@@H](n2cnc3c(NC4CCCC4)ncnc32)[C@H](O)[C@@H]1O`, at Adenosine receptor A1 [1], the EC50 turned out to be 100 nM.

On to `O=P(O)(O)OC[C@H]1O[C@@H](n2cnc3c(NC4CCCC4)nc(Cl)nc32)[C@H](O)[C@@H]1O`, for which the Ratio Ki in the data set filed under Homo sapiens [3] came out at 52. For the same molecule, the Ki came to 25 nM at Adenosine receptor A1 [8], 1300 nM at Adenosine receptor A3 and 1600 nM on Adenosine receptor A2a. Also, the EC50 turned out to be 72 nM at Adenosine receptor A1 [1] and 21 nM at Adenosine receptor A1 [12]. Moreover, the inhibition in [16] amounted to 0%.

In the case of `OC[C@H]1O[C@@H](n2cnc3c(NC4CCCC4)ncnc32)[C@H](O)[C@@H]1O` [N6-CYCLOPENTYLADENOSINE], the Activity entry in the data set on Mus musculus [5] is “Toxic”; in the data set with Mus musculus [6] it was “Toxic”; with Mus musculus [9], “Non-toxic”; in the data set on Mus musculus [14] it was “Non-toxic”; with Mus musculus [15], “Dose-dependent effect”.

As to `OCC(Cc1ccccc1)Nc1nc(Cl)nc2c1ncn2[C@@H]1O[C@H](CO)[C@@H](O)[C@H]1O` (mixture of isomers), the EC50 on Adenosine receptor A1 [1] came to 550 nM.

Take `Nc1ncnc2c1ncn2[C@@H]1O[C@H](CO)[C@@H](OP(=O)(O)O)[C@H]1O`: the EC50 on Adenosine receptor A1 [1] was 440 nM.

For the molecule `OC[C@H]1O[C@@H](n2cnc3c(N[C@H]4CCC[C@@H]4O)ncnc32)[C@H](O)[C@@H]1O` [GR-79236], the EC50 on Adenosine receptor A1 [2] amounted to 5.9 nM.

On to `COP(=O)(OC)OCC(Cc1ccccc1)Nc1nc(Cl)nc2c1ncn2[C@@H]1O[C@H](CO)[C@@H](O)[C@H]1O` (mixture of isomers), for which the EC50 at Adenosine receptor A1 [1] was found to be 5400 nM.

Take `CCOP(=O)(OCC)OC[C@H]1O[C@@H](n2cnc3c(NC4CCCC4)nc(Cl)nc32)[C@H](O)[C@@H]1O`: the EC50 on Adenosine receptor A1 [1] was over 10000 nM.

Consider `COP(=O)(OC)OC[C@H]1O[C@@H](n2cnc3c(NC4CCCC4)ncnc32)[C@H](O)[C@@H]1O`, for which the EC50 on Adenosine receptor A1 [1] turned out to be 4400 nM.

For `CCOC(=O)CNP(=O)(NCC(=O)OCC)OC[C@H]1O[C@@H](n2cnc3c(NC4CCCC4)nc(Cl)nc32)[C@H](O)[C@@H]1O`, the EC50 at Adenosine receptor A1 [1] turned out to be 530 nM.
